# Results from patent publication US10710978B2, “STK4 inhibitors for treatment of hematologic malignancies” (Dana-Farber Cancer Institute, Inc., priority 2015, dated 2020).
# Where two headings read alike, the source gives them in different places.
# Assays:
# Assay in all cases: KiNativ assay
# Type in all cases: binding
# JAK1 domain2 = JAK1 domain2 (Homo sapiens (Human), UniProt P23458); settings: H929 live cell
# Procedure: (§1) Biochemical IC50s of the compounds of the present disclosure against various kinases were measured in a KiNativ assay. Compounds were screened in duplicate at 10 μM in H929 live cell. IC50 was measured via Mass spectroscopy (MS).
# SMG1 = SMG1 (Homo sapiens (Human), UniProt Q96Q15); settings: H929 live cell
# Procedure: as §1
# RSK2 domain1 = RSK2 domain1 (Homo sapiens (Human), UniProt P51812); settings: H929 live cell
# Procedure: as §1
# STLK6 = STLK6 (Homo sapiens (Human), UniProt Q9C0K7); settings: H929 live cell
# Procedure: as §1
# NEK6, NEK7 = settings: H929 live cell
# Procedure: as §1
# PITSLRE = settings: H929 live cell
# Procedure: as §1
# MAP3K2 = MAP3K2 (Homo sapiens (Human), UniProt Q9Y2U5); settings: H929 live cell
# Procedure: as §1
# p70S6K = p70S6K (Homo sapiens (Human), UniProt P23443); settings: H929 live cell
# Procedure: as §1
# MAP3K5 = MAP3K5 (Homo sapiens (Human), UniProt Q99683); settings: H929 live cell
# Procedure: as §1
# MST1 = MST1 (Homo sapiens (Human), UniProt Q13043); settings: H929 live cell
# MST1, sequence (Q13043 whole entry): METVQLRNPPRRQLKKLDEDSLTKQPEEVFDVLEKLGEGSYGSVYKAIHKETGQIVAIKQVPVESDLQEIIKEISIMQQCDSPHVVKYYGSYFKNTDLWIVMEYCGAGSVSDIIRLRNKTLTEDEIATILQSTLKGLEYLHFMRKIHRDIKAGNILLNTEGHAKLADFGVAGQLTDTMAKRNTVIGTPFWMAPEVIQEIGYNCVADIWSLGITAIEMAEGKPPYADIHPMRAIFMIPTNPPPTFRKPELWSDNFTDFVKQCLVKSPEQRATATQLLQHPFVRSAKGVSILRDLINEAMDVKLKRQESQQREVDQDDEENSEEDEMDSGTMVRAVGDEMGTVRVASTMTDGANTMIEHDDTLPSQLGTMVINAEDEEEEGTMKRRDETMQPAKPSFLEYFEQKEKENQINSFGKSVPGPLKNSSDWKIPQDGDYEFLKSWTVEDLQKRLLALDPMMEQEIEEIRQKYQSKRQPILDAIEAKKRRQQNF
# Procedure: as §1
# PAN3 = PAN3 (Homo sapiens (Human), UniProt Q58A45); settings: H929 live cell
# PAN3, sequence (Q58A45 whole entry): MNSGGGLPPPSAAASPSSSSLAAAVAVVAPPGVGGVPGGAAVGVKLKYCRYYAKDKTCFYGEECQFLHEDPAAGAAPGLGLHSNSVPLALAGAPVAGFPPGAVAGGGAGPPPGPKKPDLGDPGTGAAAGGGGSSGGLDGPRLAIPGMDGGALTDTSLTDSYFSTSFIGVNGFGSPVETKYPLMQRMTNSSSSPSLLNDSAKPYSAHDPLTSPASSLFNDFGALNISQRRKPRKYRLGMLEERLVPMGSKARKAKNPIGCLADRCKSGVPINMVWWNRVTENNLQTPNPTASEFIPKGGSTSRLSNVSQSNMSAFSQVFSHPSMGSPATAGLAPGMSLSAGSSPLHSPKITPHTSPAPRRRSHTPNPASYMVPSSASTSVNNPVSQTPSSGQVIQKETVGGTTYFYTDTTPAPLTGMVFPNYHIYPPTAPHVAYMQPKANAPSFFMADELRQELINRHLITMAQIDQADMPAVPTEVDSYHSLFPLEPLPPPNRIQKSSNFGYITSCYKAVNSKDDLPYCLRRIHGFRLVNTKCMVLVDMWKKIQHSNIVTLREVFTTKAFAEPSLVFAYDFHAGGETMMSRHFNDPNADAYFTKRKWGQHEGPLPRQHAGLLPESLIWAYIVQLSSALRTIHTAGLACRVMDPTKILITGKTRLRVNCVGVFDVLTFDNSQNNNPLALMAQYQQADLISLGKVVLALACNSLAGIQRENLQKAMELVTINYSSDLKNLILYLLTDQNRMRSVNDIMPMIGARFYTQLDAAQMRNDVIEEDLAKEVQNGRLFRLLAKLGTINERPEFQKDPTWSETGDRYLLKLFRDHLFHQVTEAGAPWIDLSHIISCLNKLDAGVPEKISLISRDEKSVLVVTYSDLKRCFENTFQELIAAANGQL
# Procedure: as §1
# MARK4 = MARK4 (Homo sapiens (Human), UniProt Q96L34); settings: H929 live cell, read-out: inhibition (10 μM)
# Procedure: as §1
# GCK = GCK (Homo sapiens (Human), UniProt Q12851); settings: H929 live cell
# Procedure: as §1
# AKT1 = AKT1 (Homo sapiens (Human), UniProt P31749); settings: H929 live cell
# AKT1, sequence (P31749 whole entry): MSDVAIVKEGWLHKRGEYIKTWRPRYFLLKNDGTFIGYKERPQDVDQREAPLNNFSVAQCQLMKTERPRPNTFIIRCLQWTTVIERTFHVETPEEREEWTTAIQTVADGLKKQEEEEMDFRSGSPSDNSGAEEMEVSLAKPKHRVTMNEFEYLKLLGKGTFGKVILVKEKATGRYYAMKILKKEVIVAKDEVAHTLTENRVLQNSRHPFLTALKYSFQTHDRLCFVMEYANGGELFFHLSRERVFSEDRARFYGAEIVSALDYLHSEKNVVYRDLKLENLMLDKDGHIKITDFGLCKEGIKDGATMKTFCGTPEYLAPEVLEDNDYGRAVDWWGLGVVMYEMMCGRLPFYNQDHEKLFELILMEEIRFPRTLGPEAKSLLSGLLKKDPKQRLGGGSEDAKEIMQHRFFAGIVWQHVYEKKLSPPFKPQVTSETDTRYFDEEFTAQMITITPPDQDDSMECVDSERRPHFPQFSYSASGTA
# Procedure: as §1
# MAP3K1 = MAP3K1 (Homo sapiens (Human), UniProt Q13233); settings: H929 live cell
# Procedure: as §1
# ZAK = ZAK (Homo sapiens (Human), UniProt Q9NYL2); settings: H929 live cell
# Procedure: as §1
# NEK4 = NEK4 (Homo sapiens (Human), UniProt P51957); settings: H929 live cell
# Procedure: as §1
# MAP2K1, MAP2K2 = settings: 10 μM, H929 live cell
# Procedure: as §1
# IRAK1 = IRAK1 (Homo sapiens (Human), UniProt P51617); settings: H929 live cell
# IRAK1, sequence (P51617 whole entry): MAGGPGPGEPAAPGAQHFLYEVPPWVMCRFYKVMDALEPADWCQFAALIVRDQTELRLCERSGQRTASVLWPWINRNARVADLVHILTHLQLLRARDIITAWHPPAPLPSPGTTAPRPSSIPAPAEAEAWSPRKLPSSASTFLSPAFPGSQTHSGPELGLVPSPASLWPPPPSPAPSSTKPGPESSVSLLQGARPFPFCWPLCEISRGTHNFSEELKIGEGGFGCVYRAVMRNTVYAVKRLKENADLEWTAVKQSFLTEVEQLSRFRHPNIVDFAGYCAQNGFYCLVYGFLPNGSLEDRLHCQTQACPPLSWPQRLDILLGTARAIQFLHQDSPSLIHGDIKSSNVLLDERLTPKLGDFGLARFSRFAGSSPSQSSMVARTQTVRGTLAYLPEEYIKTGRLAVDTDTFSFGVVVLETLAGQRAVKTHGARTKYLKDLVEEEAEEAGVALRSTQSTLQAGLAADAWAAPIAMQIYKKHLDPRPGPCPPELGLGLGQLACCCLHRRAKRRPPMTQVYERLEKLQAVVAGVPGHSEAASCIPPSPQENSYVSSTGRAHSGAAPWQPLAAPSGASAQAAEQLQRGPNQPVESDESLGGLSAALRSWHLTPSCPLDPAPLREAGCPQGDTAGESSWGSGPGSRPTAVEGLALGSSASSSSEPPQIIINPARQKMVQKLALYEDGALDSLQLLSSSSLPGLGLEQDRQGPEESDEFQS
# Procedure: as §1
# MAP2K4 = MAP2K4 (Homo sapiens (Human), UniProt P45985); settings: H929 live cell
# MAP2K4, sequence (P45985 whole entry): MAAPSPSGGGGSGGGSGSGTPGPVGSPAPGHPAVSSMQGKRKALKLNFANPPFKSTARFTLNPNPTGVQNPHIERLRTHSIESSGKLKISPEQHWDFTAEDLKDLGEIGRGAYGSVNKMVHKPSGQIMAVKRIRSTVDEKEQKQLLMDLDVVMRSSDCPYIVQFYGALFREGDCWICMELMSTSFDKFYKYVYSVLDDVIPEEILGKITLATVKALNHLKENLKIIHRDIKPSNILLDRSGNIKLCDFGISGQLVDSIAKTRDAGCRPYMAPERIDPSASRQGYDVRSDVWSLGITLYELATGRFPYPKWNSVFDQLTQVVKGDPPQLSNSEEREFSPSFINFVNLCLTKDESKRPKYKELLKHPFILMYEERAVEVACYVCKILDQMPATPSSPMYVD
# Procedure: as §1
# JNK1, JNK2, JNK3 = settings: H929 live cell
# Procedure: as §1
# IRE1 = IRE1 (Homo sapiens (Human), UniProt O75460); settings: H929 live cell
# Procedure: as §1
# Wnk1, Wnk2, Wnk3 = settings: H929 live cell
# Procedure: as §1
# p70S6Kb = p70S6Kb (Homo sapiens (Human), UniProt Q9UBS0); settings: H929 live cell
# p70S6Kb, sequence (Q9UBS0 whole entry): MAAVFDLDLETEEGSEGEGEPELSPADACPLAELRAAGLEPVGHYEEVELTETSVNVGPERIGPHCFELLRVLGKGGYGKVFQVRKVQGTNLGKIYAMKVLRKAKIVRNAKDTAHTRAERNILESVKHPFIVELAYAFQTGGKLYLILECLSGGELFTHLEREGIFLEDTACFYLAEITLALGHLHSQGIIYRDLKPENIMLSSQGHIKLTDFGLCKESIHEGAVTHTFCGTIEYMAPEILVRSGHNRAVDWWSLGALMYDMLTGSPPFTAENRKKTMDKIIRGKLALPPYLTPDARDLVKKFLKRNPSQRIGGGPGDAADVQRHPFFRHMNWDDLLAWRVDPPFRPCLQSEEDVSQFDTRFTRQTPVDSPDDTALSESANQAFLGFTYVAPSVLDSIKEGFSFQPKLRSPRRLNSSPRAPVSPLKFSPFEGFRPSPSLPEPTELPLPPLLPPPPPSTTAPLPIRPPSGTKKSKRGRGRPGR
# Procedure: as §1
# MST1, MST2 = settings: H929 live cell
# Procedure: as §1
# ACK = ACK (Homo sapiens (Human), UniProt Q07912); settings: H929 live cell
# Procedure: as §1
# PEK = PEK (Homo sapiens (Human), UniProt Q9NZJ5); settings: H929 live cell
# Procedure: as §1
# JAK1 domain1 = JAK1 domain1 (Homo sapiens (Human), UniProt P23458); settings: H929 live cell
# Procedure: as §1
# SRPK2 = SRPK2 (Homo sapiens (Human), UniProt P78362); settings: H929 live cell
# SRPK2, sequence (P78362 whole entry): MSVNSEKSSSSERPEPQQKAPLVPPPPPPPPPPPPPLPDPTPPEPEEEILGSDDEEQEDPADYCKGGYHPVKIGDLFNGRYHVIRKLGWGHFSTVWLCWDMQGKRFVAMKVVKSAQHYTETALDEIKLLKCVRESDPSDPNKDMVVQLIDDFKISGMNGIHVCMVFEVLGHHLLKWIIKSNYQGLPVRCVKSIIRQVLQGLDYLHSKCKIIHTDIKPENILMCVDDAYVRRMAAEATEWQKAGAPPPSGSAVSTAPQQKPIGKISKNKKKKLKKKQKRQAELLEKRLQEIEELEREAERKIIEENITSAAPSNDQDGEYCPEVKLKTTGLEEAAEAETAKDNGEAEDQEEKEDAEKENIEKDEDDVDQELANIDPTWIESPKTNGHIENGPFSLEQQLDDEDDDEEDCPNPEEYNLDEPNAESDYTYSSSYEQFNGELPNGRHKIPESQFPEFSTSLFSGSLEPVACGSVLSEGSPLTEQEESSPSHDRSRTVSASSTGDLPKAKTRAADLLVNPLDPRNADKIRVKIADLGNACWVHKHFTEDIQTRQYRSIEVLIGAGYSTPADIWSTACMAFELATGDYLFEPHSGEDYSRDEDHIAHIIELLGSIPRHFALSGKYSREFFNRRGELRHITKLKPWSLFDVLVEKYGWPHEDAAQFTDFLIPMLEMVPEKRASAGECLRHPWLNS
# Procedure: as §1
# PRPK = PRPK (Homo sapiens (Human), UniProt Q96S44); settings: H929 live cell
# Procedure: as §1
# ULK1 = ULK1 (Homo sapiens (Human), UniProt O75385); settings: H929 live cell
# Procedure: as §1
# KHS1 = KHS1 (Homo sapiens (Human), UniProt Q9Y4K4); settings: H929 live cell
# Procedure: as §1
# PKD2 = PKD2 (Homo sapiens (Human), UniProt Q9BZL6); settings: H929 live cell
# PKD2, sequence (Q9BZL6 whole entry): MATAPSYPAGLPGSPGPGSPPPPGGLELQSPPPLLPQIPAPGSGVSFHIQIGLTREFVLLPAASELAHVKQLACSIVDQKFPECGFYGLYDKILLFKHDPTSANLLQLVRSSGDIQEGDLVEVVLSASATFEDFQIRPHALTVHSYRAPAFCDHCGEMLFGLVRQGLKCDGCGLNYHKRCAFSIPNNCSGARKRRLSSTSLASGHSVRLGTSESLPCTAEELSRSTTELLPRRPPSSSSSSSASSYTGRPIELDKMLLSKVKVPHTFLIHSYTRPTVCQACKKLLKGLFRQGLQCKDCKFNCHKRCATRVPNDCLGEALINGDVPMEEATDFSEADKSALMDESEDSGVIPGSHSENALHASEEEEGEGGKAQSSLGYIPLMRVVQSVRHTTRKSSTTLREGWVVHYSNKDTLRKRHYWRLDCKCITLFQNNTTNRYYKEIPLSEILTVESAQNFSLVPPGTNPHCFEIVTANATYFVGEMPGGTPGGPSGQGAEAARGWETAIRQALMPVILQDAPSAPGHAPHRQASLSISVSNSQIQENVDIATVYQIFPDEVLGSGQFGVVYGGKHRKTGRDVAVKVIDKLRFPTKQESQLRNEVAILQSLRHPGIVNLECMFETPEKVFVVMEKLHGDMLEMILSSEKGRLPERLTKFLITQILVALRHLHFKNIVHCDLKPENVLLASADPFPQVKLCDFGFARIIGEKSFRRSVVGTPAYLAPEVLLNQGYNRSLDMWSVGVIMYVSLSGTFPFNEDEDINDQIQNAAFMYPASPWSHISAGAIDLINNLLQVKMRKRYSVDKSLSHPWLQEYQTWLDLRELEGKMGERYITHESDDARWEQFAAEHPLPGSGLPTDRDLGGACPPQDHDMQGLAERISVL
# Procedure: as §1
# NuaK2 = NuaK2 (Homo sapiens (Human), UniProt Q9H093); settings: H929 live cell
# Procedure: as §1
structure (smiles),measurement,setting,value
"Nc1ncc(-c2cccc3ncsc23)cc1-c1ccc2c(c1)CCNC2=O [Compound I-13, 6-(2-amino-5-(benzo[d]thiazol-7-yl)pyridin-3-yl)-3,4-dihydroisoquinolin-1(2H)-one]",inhibition at 10 µM,JAK1 domain2; read-out: % inhibition (range),0%
same,inhibition at 10 µM,JAK1 domain2; read-out: inhibition (10 μM),-16%
same,inhibition at 10 µM,SMG1; read-out: % inhibition (range),50 to 75%
same,inhibition at 10 µM,SMG1; read-out: inhibition (10 μM),61%
same,inhibition at 10 µM,RSK2 domain1; read-out: % inhibition (range),0%
same,inhibition at 10 µM,RSK2 domain1; read-out: inhibition (10 μM),19.2%
same,inhibition at 10 µM,STLK6; read-out: % inhibition (range),0%
same,inhibition at 10 µM,STLK6; read-out: inhibition (10 μM),-10.8%
same,% inhibition (range),"NEK6, NEK7; 10 μM",0.0%
same,inhibition (10 μM),"NEK6, NEK7",−20.1%
same,% inhibition (range),PITSLRE; 10 μM,0.0%
same,inhibition (10 μM),PITSLRE,−3.6%
same,inhibition at 10 µM,MAP3K2; read-out: % inhibition (range),0%
same,inhibition at 10 µM,MAP3K2; read-out: inhibition (10 μM),-23.5%
same,inhibition at 10 µM,p70S6K; read-out: % inhibition (range),0%
same,inhibition at 10 µM,p70S6K; read-out: inhibition (10 μM),-14.3%
same,inhibition at 10 µM,MAP3K5; read-out: % inhibition (range),0%
same,inhibition at 10 µM,MAP3K5; read-out: inhibition (10 μM),25.6%
same,inhibition at 10 µM,MST1; read-out: % inhibition (range),75 to 90%
same,inhibition at 10 µM,MST1; read-out: inhibition (10 μM),89%
same,inhibition at 10 µM,PAN3; read-out: % inhibition (range),0%
same,inhibition at 10 µM,PAN3; read-out: inhibition (10 μM),-4%
same,inhibition at 10 µM,MARK4,39.8%
same,inhibition at 10 µM,GCK; read-out: % inhibition (range),75 to 90%
same,inhibition at 10 µM,GCK; read-out: inhibition (10 μM),77.3%
same,inhibition at 10 µM,AKT1; read-out: % inhibition (range),0%
same,inhibition at 10 µM,AKT1; read-out: inhibition (10 μM),26.4%
same,inhibition at 10 µM,MAP3K1; read-out: % inhibition (range),> 90%
same,inhibition at 10 µM,MAP3K1; read-out: inhibition (10 μM),90.2%
same,inhibition at 10 µM,ZAK; read-out: % inhibition (range),35 to 50%
same,inhibition at 10 µM,ZAK; read-out: inhibition (10 μM),44.9%
same,inhibition at 10 µM,NEK4; read-out: % inhibition (range),0%
same,inhibition at 10 µM,NEK4; read-out: inhibition (10 μM),4.7%
same,% inhibition (range),"MAP2K1, MAP2K2",0.0%
same,inhibition at 10 µM,IRAK1; read-out: % inhibition (range),0%
same,inhibition at 10 µM,IRAK1; read-out: inhibition (10 μM),28.5%
same,inhibition at 10 µM,MAP2K4; read-out: % inhibition (range),35 to 50%
same,inhibition at 10 µM,MAP2K4; read-out: inhibition (10 μM),48.2%
same,% inhibition (range),"JNK1, JNK2, JNK3; 10 μM",0.0%
same,inhibition (10 μM),"JNK1, JNK2, JNK3",6.0%
same,inhibition at 10 µM,IRE1; read-out: % inhibition (range),0%
same,inhibition at 10 µM,IRE1; read-out: inhibition (10 μM),-17%
same,% inhibition (range),"Wnk1, Wnk2, Wnk3; 10 μM",0.0%
same,inhibition (10 μM),"Wnk1, Wnk2, Wnk3",−69.3%
same,inhibition at 10 µM,p70S6Kb; read-out: % inhibition (range),0%
same,inhibition at 10 µM,p70S6Kb; read-out: inhibition (10 μM),-17.4%
same,% inhibition (range),"MST1, MST2; 10 μM",75-90%
same,inhibition (10 μM),"MST1, MST2",89.4%
same,inhibition at 10 µM,ACK; read-out: % inhibition (range),0%
same,inhibition at 10 µM,ACK; read-out: inhibition (10 μM),23.3%
same,inhibition at 10 µM,PEK; read-out: % inhibition (range),0%
same,inhibition at 10 µM,PEK; read-out: inhibition (10 μM),-40.8%
same,inhibition at 10 µM,JAK1 domain1; read-out: % inhibition (range),0%
same,inhibition at 10 µM,JAK1 domain1; read-out: inhibition (10 μM),-22.4%
same,inhibition at 10 µM,SRPK2; read-out: % inhibition (range),0%
same,inhibition at 10 µM,SRPK2; read-out: inhibition (10 μM),-14%
same,inhibition at 10 µM,PRPK; read-out: % inhibition (range),0%
same,inhibition at 10 µM,PRPK; read-out: inhibition (10 μM),-6.4%
same,inhibition at 10 µM,ULK1; read-out: % inhibition (range),0%
same,inhibition at 10 µM,ULK1; read-out: inhibition (10 μM),-23.4%
same,inhibition at 10 µM,KHS1; read-out: % inhibition (range),35 to 50%
same,inhibition at 10 µM,KHS1; read-out: inhibition (10 μM),47.7%
same,inhibition at 10 µM,PKD2; read-out: % inhibition (range),50 to 75%
same,inhibition at 10 µM,PKD2; read-out: inhibition (10 μM),52.1%
same,inhibition at 10 µM,NuaK2; read-out: % inhibition (range),50 to 75%
same,inhibition at 10 µM,NuaK2; read-out: inhibition (10 μM),53.9%
